Source: patent publication US9988377B2, “Small molecule inducers of GDNF as potential new therapeutics for neuropsychiatric disorders” (THE TRUSTEES OF COLUMBIA UNIVERSITY IN THE CITY OF NEW YORK, priority 2011, dated 2018)

Assays:
[1] = test system: GDNF release by C6 glioma cells; experiment: GDNF release by conventional ELISA in conditioned media of C6 glioma cells; format: cell-based; details: 10 μM compound, 48 h, 0.1% DMSO vehicle, representative experiment; for fold induction at 10 µM: C6 glioma, read-out: GDNF Increase ± SEM (fold/vehicle control)
Excerpt: Conventional ELISAs were used to determine compound-induced increases of GDNF concentration in conditioned media of C6 glioma cells, and have afforded increased sensitivity compared to in-situ ELISA in our hands. C6 cells were purchased from ATCC (Manassas, Va.) at passage 37 and were used between passages 41-46. This requirement for a narrow range of passages is based on an observed decrease in magnitude of GDNF release with age of the cell line, and is consistent with reported behavior of C6 cells. All incubations were conducted at 37° C. in a humidified atmosphere containing 5% CO2. GDNF release was measured for each compound in 3 independent experiments. Briefly, C6 cells were seeded into sterile 12-well culture plates (Falcon) at a density of 300,000 cells per well and were recovered for 24 h in 1mL complete growth medium (94% high glucose DMEM, 5% FBS, 1% penicillin/streptomycin). Wells were then washed with 1mL sterile DPBS and were incubated for an additional 24 h with 0.5 mL low-serum medium (98.5% high glucose DMEM, 0.5% FBS, 1% penicillin/streptomycin). On the following day, experimental compounds or DMSO vehicle control were added each to duplicate wells in an additional 0.5 mL of low-serum medium. The final concentration of each compound was 10 μM in 1mL low-serum medium containing 0.1% DMSO. Plates were incubated with compounds and vehicle control for 48 h. Conditioned media were then collected from each well and GDNF concentrations were measured in triplicate on 96-well ELISA plates using the GDNF Emax Immunoassay System from Promega (Madison, Wis.) according to the manufacturer's instructions. A Bio-Tek H1MF plate reader (Burlington, Vt.) was used to measure absorbance from the resulting colorimetric reaction. Total GDNF release for each compound was calculated from the standard curve using Microsoft Excel. Data are normalized to the vehicle control and are thus presented as fold increase of GDNF concentration in experimental wells over that of the vehicle control. Each reported compound afforded a statistically significant increase of GDNF release over the DMSO control in each of three independent experiments conducted on separate days unless otherwise noted. Statistical significance within each experiment was determined by ANOVA followed by Tukey's post-hoc analysis using GraphPad Prism. Because of the naturally high variability of GDNF release values between experiments, data presented herein are intra-assay means from a representative experiment ±intra-assay standard error of the mean (SEM) calculated from biological replicates. Cytotoxicity for each compound was below 20% as measured by LDH levels in conditioned media (Cytotox 96, Promega).
All results (Table 2) represent fold-increase of GDNF release by C6 glioma cells treated with the indicated compound for 48 hours, normalized to the vehicle control. Results are presented from a representative experiment and were determined to be statistically significant (ANOVA) compared to the vehicle control.

[2] = test system: GDNF release from C6 glioma cells; experiment: GDNF in-situ ELISA in C6 glioma cells; format: cell-based; details: 10 μM compound, 48-hour incubation, fold over control release, corrected for pre-treatment release; for fold induction at 10 µM: C6 glioma, 48 h, read-out: Fold-Increase of GDNF Concentration
Protocol: The GDNF Emax Immunoassay System from Promega (Madison, Wis.) was used to determine small molecule induced GDNF release from C6 glioma cells (ATCC, Manassas, Va.) with the following protocol. A 96-well ELISA plate was sterilized with UV for 30 minutes. The plate was coated with 100 μl/well of the anti-GDNF monoclonal antibody solution in carbonate coating buffer prepared per the manufacturer's instructions, and incubated overnight at 4° C. The antibody coating buffer was removed from the plate, which was then blocked according to the instructions in the kit. The plate was then incubated with 200 μl/well complete growth medium ([…], 5% FBS, 1% penicillin/streptomycin) for 2×1 h at rt to remove residue of the blocking buffer. After these washes were complete, fresh culture media was added to the wells. C6 cells were seeded at a density of 11,000 cells/well, with a total volume of approximately 150 μl in each well. The plate was incubated at 37° C. in an atmosphere containing 5% CO2. After 24 hours, complete growth medium was replaced with low serum medium (98.5% DMEM, 0.5% FBS, 1% penicillin/streptomycin) and the plate was incubated overnight for cellular synchronization. On the following day, cells were treated with experimental compounds for the indicated time. We used 10 μM concentrations of the tested compounds during a 48-hour incubation. Simultaneously with initiation of treatment, cells were removed from pre-treatment control wells with 5×200 μL washes of TBST (to control for basal GDNF release before the treatment period), and low-serum medium was added to these wells. 6 hours prior to stopping treatment with experimental compounds, the GDNF standard was added to the plate per the manufacturer's instructions. To terminate the treatment, the plate was washed extensively with 200 μl/well TBST washing buffer 5 times, which removed the cells. GDNF release for each well was measured according to GDNF Emax Immunoassay system instructions, and a plate reader was used to measure absorbance at 450 nm. Total GDNF release is calculated from the standard curve using Microsoft Excel. The listed values in Table 1 are presented as fold-increase of release of GDNF over control release of GDNF, corrected for pre-treatment release by subtracting from all values the mean amount of GDNF released in pre-treatment control wells. Statistical significance was determined using the Student's t-test.

Compound | GDNF Increase ± SEM (fold/vehicle control) [1] [fold/vehicle control] | fold induction at 10 µM [1] | other results
6-ethyl-2-(2-(5-fluoro-1H-indol-3-yl)ethyl)-2-azabicyclo[2.2.2]oct-5-ene [Compound 91] | 13.61 ± 0.62 | – | –
CCC1CC2C=CC1N(CCc1c[nH]c3ccc(OC)cc13)C2 (racemic) [Compound 10b, exo-7-ethyl-2-[2-(5-methoxy-1H-indol-3-yl)ethyl]-2-azabicyclo[2.2.2]oct-5-ene] | – | – | fold induction at 10 µM [2]: 2.2 ± 0.2
CCC1CC2C=CC1N(CCCc1c[nH]c3ccccc13)C2 (racemic) [Compound 12b, endo-2-[3-(1H-indol-3-yl)propyl]-7-ethyl-2-azabicyclo [2.2.2] oct-5-ene] | – | – | fold induction at 10 µM [2]: 1.5
CCC1CC2C=CC1N(CCc1c[nH]c3ccc(OC)cc13)C2 (racemic) [Compound 12c, endo-7-ethyl-2-[2-(5-methoxy-1H-indol-3-yl)ethyl]-2-azabicyclo [2.2.2]oct-5-ene] | – | – | Fold-Increase of GDNF Concentration [2]: 2.1 ± 0.1 fold
CCOC(=O)c1[nH]c2ccccc2c1CCN1CC2C=CC1C(CC)C2 (racemic) [Compound 12d, endo-ethyl-3-[2-(7-ethyl-2-azabicyclo[2.2.2]oct-5-en-2-yl)ethyl]-1H-indole-2-carboxylate] | – | – | fold induction at 10 µM [2]: 1.5
CCC1CC2C=CC1N(CCc1c[nH]c3c(F)cccc13)C2 (racemic) [Compound 69, exo-7-ethyl-2-(2-(7-fluoro-1H-indol-3-yl)ethyl)-2-azabicyclo [2.2.2]oct-5-ene] | – | 12.13 ± 0.01 | –
CCC1CC2C=CC1N(CCc1c[nH]c3cccc(F)c13)C2 (racemic) [Compound 70, exo-7-ethyl-2-(2-(4-fluoro-1H-indol-3-yl)ethyl)-2-azabicyclo[2.2.2]oct-5-ene] | – | 15.8 ± 0.65 | –
CCC1CC2C=CC1N(CCc1c[nH]c3cc(F)ccc13)C2 (racemic) [Compound 71, exo-7-ethyl-2-(2-(6-fluoro-1H-indol-3-yl)ethyl)-2-azabicyclo[2.2.2]oct-5-ene] | – | 16.5 ± 0.3 | –
CCC1CC2C=CC1N(CCc1c[nH]c3ccc(F)cc13)C2 (racemic) [Compound 72, exo-7-ethyl-2-(2-(5-fluoro-1H-indol-3-yl)ethyl)-2-azabicyclo[2.2.2]oct-5-ene] | – | 16.2 ± 0.41 | –
CCC1CC2C=CC1N(CCc1csc3ccccc13)C2 (racemic) [Compound 73, exo-2-(2-(benzo[b]thiophen-3-yl)ethyl)-7-ethyl-2-azabicyclo[2.2.2]oct-5-ene] | – | 9.87 ± 0.22 | –
CCCC1CC2C=CC1N(CCc1c[nH]c3ccccc13)C2 (racemic) [Compound 75, endo-2-(2-(1H-indol-3-yl)ethyl)-7-propyl-2-azabicyclo [2.2.2]oct-5-ene] | – | 14.8 ± 0.85 | –
C1=CC2C(Cc3ccccc3)CC1CN2CCc1c[nH]c2ccccc12 (racemic) [Compound 76, endo-2-(2-(1H-indol-3-yl)ethyl)-7-benzyl-2-azabicyclo[2.2.2]oct-5-ene] | – | 12.8 ± 0.85 | –
C1=CC2C(Cc3ccccc3)CC1CN2CCc1c[nH]c2ccccc12 (racemic) [Compound 77, exo-2-(2-(1H-indol-3-yl)ethyl)-7-benzyl-2-azabicyclo[2.2.2]oct-5-ene] | 13.22 ± 0.08 | – | –
CCCC1CC2C=CC1N(CCc1c[nH]c3ccc(F)cc13)C2 (racemic) [Compound 78, endo-2-(2-(5-fluoro-1H-indol-3-yl)ethyl)-7-propyl-2-azabicyclo[2.2.2]oct-5-ene] | 14.39 ± 0.51 | – | –
CCCC1CC2C=CC1N(CCc1c[nH]c3ccc(F)cc13)C2 (racemic) [Compound 79, exo-2-(2-(5-fluoro-1H-indol-3-yl)ethyl)-7-propyl-2-azabicyclo[2.2.2]oct-5-ene] | – | 14.6 ± 0.21 | –
C1=CC2C(Cc3cccnc3)CC1CN2CCc1c[nH]c2ccccc12 (racemic) [Compound 80, exo-2-(2-(1H-indol-3-yl)ethyl)-7-(pyridin-3-ylmethyl)-2-azabicyclo[2.2.2]oct-5-ene] | – | 7.02 ± 1.31 | –
CCC1CC2C=CC1N(CCc1cn(S(=O)(=O)c3ccc(C)cc3)c3ccccc13)C2 (racemic) [Compound 82, exo-7-ethyl-2-(2-(1-tosyl-1H-indol-3-yl)ethyl)-2-azabicyclo[2.2.2]oct-5-ene] | – | 13.6 ± 1.41 | –
CCCCC1CC2C=CC1N(CCc1c[nH]c3ccccc13)C2 (racemic) [Compound 83, endo-2-(2-(1H-indol-3-yl)ethyl)-7-butyl-2-azabicyclo[2.2.2]oct-5-ene] | – | 12.8 ± 0.5 | –
CCCCC1CC2C=CC1N(CCc1c[nH]c3ccccc13)C2 (racemic) [Compound 84, exo-2-(2-(1H-indol-3-yl)ethyl)-7-butyl-2-azabicyclo[2.2.2]oct-5-ene] | 12.65 ± 0.66 | – | –
Fc1ccc2[nH]cc(CCN3CC4C=CC3C(Cc3ccccc3)C4)c2c1 (racemic) [Compound 85, exo-7-benzyl-2-(2-(5-fluoro-1H-indol-3-yl)ethyl)-2-azabicyclo[2.2.2]oct-5-ene] | – | 13.2 ± 2.03 | –
C1=CC2C(COCc3ccccc3)CC1CN2CCc1c[nH]c2ccccc12 (racemic) [Compound 86, endo-2-(2-(1H-indol-3-yl)ethyl)-7-(benzyloxymethyl)-2-azabicyclo[2.2.2]oct-5-ene] | – | 13.8 ± 2.01 | –
CCC1CC2C=CC1N(CCc1c[nH]c3cccc(F)c13)C2 (racemic) [Compound 87, endo-7-ethyl-2-(2-(4-fluoro-1H-indol-3-yl)ethyl)-2-azabicyclo[2.2.2]oct-5-ene] | 10.87 ± 0.84 | – | –
CCC1CC2C=CC1N(CCc1c[nH]c3c(F)cccc13)C2 (racemic) [Compound 89, endo-7-ethyl-2-(2-(7-fluoro-1H-indol-3-yl)ethyl)-2-azabicyclo[2.2.2]oct-5-ene] | 14.71 ± 0.11 | – | –
CCC1CC2C=CC1N(CCc1csc3ccccc13)C2 (racemic) [Compound 90, endo-2-(2-(benzo[b]thiophen-3-yl)ethyl)-7-ethyl-2-azabicyclo[2.2.2]oct-5-ene] | 11.86 ± 0.01 | – | –
CCCC1CC2C=CC1N(CCc1c[nH]c3ccccc13)C2 (stereo not drawn) [Compound 74, exo-2-(2-(1H-indol-3-yl)ethyl)-7-propyl-2-azabicyclo[2.2.2]oct-5-ene] | – | 7.11 ± 1.17 | –
CCC1CC2C=CC1N(CCCc1c[nH]c3ccccc13)C2 (stereo not drawn) [Compound 81, exo-2-(3-(1H-indol-3-yl)propyl)-7-ethyl-2-azabicyclo[2.2.2]oct-5-ene] | 12.55 ± 0.05 | – | –
